Consider one substance from article PMC10609143, “Inhibitory Mechanisms of Lekethromycin in Dog Liver Cytochrome P450 Enzymes Based on UPLC-MS/MS Cocktail Method” (Molecules, 2023).

What all share (assay type): in vitro ADME
In one data set the target is T1, CYP1A2 (Canis lupus familiaris, UniProt P56592).
T1 construct: from tissue; host or cells: dog liver microsomes (DLM)
T1 sequence (P56592 1-512): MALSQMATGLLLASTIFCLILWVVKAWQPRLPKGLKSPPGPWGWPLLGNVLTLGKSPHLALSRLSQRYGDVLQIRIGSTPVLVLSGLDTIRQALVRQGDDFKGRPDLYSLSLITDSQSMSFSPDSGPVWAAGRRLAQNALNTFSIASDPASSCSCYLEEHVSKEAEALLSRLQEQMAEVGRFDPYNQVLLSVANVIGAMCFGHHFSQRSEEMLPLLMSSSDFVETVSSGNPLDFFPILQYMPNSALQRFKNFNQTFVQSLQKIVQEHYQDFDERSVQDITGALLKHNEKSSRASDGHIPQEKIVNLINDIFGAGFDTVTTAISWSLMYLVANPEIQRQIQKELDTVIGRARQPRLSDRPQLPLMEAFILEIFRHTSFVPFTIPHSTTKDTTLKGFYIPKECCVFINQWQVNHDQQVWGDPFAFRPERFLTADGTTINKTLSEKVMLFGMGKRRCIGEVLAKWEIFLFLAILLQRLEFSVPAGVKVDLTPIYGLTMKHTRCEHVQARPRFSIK
Kind of data set: CYP450 inhibition study of LKMS in dog liver microsomes (cocktail, UPLC-MS/MS), phenacetin O-deethylation. The note with it: probe at Km, 15 min, 0.2 mg/mL protein, n = 3. The protocol: (§1) All experiments were performed in triplicate.
(§2) Inhibition assessment of CYP450 isoforms in DLM was performed with a fixed concentration of model probe substrates and a series of concentrations of LKMS ranging from 0 to 80 μM. The concentration of probe substrates was at a concentration of Km in this study. […] Mode inhibition was examined based on a primary Lineweaver–Burk plot and a secondary plot.
(§3) The IC50 values and enzyme kinetic parameters were determined by plotting relative activities over the logarithm of the concentration of LKMS using GraphPad (v.8.0.2, CA, USA). The mode of the inhibitor was analyzed using a Lineweaver–Burk plot and a secondary plot for inhibition constant (Ki and αKi) values. All experimental data are shown as mean ± standard deviation (SD).
A general note: Liver microsomes are a subcellular fraction often used to study metabolism.

The target in another data set is T2, CYP2E1 (Canis lupus familiaris, UniProt Q9MZY0).
T2 construct: from tissue; host or cells: dog liver microsomes (DLM)
T2 sequence (Q9MZY0 whole entry): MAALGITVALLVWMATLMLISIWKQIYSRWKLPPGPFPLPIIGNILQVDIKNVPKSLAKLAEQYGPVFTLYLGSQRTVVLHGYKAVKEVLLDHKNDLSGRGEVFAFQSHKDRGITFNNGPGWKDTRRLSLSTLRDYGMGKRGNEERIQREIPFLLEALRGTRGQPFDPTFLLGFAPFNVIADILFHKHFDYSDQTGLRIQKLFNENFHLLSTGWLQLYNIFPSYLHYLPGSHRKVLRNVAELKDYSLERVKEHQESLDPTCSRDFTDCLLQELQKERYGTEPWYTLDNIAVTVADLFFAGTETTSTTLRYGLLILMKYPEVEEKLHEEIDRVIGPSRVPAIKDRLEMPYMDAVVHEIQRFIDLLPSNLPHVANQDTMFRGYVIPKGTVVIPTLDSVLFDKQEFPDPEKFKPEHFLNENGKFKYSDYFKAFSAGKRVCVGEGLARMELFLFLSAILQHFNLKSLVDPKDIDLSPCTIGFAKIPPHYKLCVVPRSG
Kind of data set: CYP450 inhibition study of LKMS in dog liver microsomes, chlorzoxazone hydroxylation. The settings on record: probe at Km, 15 min, 0.2 mg/mL protein, n = 3. Here is the method:
as §1, §2, §3

The nature of data set [1]: CYP450 inhibition study of LKMS in dog liver microsomes, testosterone 6β-hydroxylation. The settings on record: probe at Km, 15 min, 0.2 mg/mL protein, n = 3. Here is the method: as §1, §2, §3
The next data set deals with CYP2C9. In words: CYP450 inhibition study of LKMS in dog liver microsomes, tolbutamide 4-hydroxylation. The settings on record: probe at Km, 15 min, 0.2 mg/mL protein, n = 3. The protocol: as §1, §2, §3
The target in the next data set is T3, CYP2B6 (Canis lupus familiaris, UniProt P24460).
T3 construct: from tissue; host or cells: dog liver microsomes (DLM)
T3 sequence (P24460 1-494): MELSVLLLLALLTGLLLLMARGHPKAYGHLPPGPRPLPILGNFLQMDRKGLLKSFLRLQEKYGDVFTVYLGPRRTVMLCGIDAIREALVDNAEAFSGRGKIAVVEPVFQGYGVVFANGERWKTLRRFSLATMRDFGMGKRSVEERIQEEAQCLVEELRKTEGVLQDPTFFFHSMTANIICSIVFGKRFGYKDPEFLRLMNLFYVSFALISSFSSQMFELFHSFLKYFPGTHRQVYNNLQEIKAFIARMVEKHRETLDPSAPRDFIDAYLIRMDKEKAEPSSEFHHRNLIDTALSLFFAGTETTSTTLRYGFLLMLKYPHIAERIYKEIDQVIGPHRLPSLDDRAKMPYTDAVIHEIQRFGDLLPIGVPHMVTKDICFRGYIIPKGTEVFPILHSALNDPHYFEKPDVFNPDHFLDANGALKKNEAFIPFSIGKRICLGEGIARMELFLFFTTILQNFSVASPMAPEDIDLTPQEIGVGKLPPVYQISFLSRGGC
In words: CYP450 inhibition study of LKMS in dog liver microsomes, bupropion hydroxylation. The protocol:
as §1, §2, §3

For another data set, the target named is T4, CYP2D6 (Canis lupus familiaris, UniProt Q29473).
T4 construct: from tissue; host or cells: dog liver microsomes (DLM)
T4 sequence (Q29473 1-500): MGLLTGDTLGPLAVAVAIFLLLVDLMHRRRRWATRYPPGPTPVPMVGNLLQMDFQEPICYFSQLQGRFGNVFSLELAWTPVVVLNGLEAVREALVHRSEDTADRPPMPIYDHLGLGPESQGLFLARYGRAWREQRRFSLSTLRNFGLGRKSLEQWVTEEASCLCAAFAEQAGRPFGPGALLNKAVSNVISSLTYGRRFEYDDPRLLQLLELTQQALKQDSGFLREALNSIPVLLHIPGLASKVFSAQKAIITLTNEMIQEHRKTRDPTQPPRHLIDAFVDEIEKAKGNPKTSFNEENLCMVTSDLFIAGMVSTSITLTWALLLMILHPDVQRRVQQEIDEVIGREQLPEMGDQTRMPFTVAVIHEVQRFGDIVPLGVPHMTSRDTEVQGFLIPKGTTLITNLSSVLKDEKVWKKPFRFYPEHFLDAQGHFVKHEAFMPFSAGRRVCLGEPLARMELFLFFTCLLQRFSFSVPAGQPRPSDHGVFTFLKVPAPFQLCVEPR
In words: CYP450 inhibition study of LKMS in dog liver microsomes, dextromethorphan O-demethylation. The protocol: as §1, §2, §3

A further data set relates to CYP2A6. Kind of data set: CYP450 inhibition study of LKMS in dog liver microsomes, coumarin hydroxylation. Here is the method: as §1, §2, §3
Data set [2] relates to CYP450 enzymes in dog liver microsomes. In words: Chemical inhibition experiments: LKMS disappearance rate with selective CYP450 inhibitors. The note with it: n = 3. Here is the method: The effect of selective inhibitors on the rate of LKMS disappearance was investigated to identify the metabolizing enzymes of LKMS. The total volume of the incubation system was 200 μL, which contained the tested compound, inhibitors, PBS (pH = 7.4), LKMS, and NADPH. The study was performed via incubation with different inhibitors of CYP450 as follows: α-naphthoflavone (CYP1A2, 2 μM), pilocarpine (CYP2A6, 8 μM), Thio-TEPA (CYP2B6, 6 μM), sulfaphenazole (CYP2C9, 6 μM), quinidine (CYP2D6, 8 μM), sodium diethyldithiocarbamate (CYP2E1, 20 μM), and ketoconazole (CYP3A4, 2 μM). The sample incubated without inhibitors was used as a negative control. The sample was incubated with dimethyl sulfoxide (DMSO) (25%) as a positive control in this study. Following this pilot, confirmatory experiments were conducted by incubating with DLM in the presence of specific CYP450 inhibitors.

A word on the IC50: it is the point on the concentration scale where inhibition reaches its midpoint. In general, Ki refers to a measure of affinity in units of concentration, obtained from inhibition or displacement.

In the case of Lekethromycin [LKMS], the 50% inhibitory concentration (IC50) is > 200 µM at CYP1A2; > 200 µM on CYP2E1; > 200 µM in data set [1]; > 200 µM in the data set with CYP2C9; 39.7 µM at CYP2D6 (dog liver microsomes, dextromethorphan O-demethylation, probe at Km, 15 min, 0.2 mg/mL protein, n = 3); 62.5 µM in the data set with CYP2A6 (dog liver microsomes, coumarin hydroxylation, probe at Km, 15 min, 0.2 mg/mL protein, n = 3). In addition, the Mode of inhibition result at CYP2B6 (CYP2B6, Lineweaver-Burk plots) is recorded as “mixed way”; at CYP2D6 (CYP2D6, Lineweaver-Burk plots), “mixed way”; with CYP2A6 (CYP2A6, Lineweaver-Burk plots), “mixed-type inhibition”. Moreover, the inhibition constant (Ki) on CYP2B6 (CYP2B6, dog liver microsomes, Lineweaver-Burk and secondary (slope) plot, n = 2, read-out: Ki (inhibition constant)) was found to be 59.4 µM; at CYP2D6 (CYP2D6, dog liver microsomes, Lineweaver-Burk and secondary (slope) plot, n = 2, read-out: Ki (inhibition constant)), 64.9 µM; in the data set with CYP2A6 (CYP2A6, dog liver microsomes, Lineweaver-Burk and secondary (slope) plot, n = 2, read-out: Ki (inhibition constant)), 136 µM. In addition, the “αKi (alpha inhibition constant)” value at CYP2B6 (CYP2B6, dog liver microsomes, secondary (intercept) plot, n = 2) stood at 12.07 µM; on CYP2D6 (CYP2D6, dog liver microsomes, secondary (intercept) plot, n = 2), 279.6 µM; with CYP2A6 (CYP2A6, dog liver microsomes, secondary (intercept) plot, n = 2) it was 227.6 µM. Besides, the “Decrease of biotransformation rate of LKMS” value in data set [2] (CYP1A2 inhibitor α-naphthoflavone 2 μM), in data set [2] (CYP2A6 inhibitor pilocarpine 8 μM), in data set [2] (CYP2B6 inhibitor Thio-TEPA 6 μM), in data set [2] (CYP2C9 inhibitor sulfaphenazole 6 μM) and in data set [2] (CYP2E1 inhibitor sodium diethyldithiocarbamate 20 μM) was “about 50%” in each case.
